Molecular target: T1, MPO (purified from human polynuclear leukocytes) (Homo sapiens, UniProt P05164)
T1 construct: purified from human polynuclear leukocytes; purchased Calbiochem/EMD Biosciences; host or cells: human polynuclear leukocytes (natural source)
Test: MPO Amplex Red Activity Assay
Format: biochemical
Settings: Table 1A, 2 μM H2O2, pH 7.4
Method in brief: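 Human leukocyte MPO […] oxidises 30 μM Amplex Red with 2 μM H2O2 in 50 mM NaPi pH 7.4, 150 mM NaCl, 1 mM DTPA, 2% DMSO. Resorufin fluorescence (ex 530/em 580 nm) read every 20 s, minus catalase background. kobs from the first 600 s, corrected for auto-inactivation, fit versus [I] for kinact/KI.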

T1 sequence (P05164 279-745 limits assumed): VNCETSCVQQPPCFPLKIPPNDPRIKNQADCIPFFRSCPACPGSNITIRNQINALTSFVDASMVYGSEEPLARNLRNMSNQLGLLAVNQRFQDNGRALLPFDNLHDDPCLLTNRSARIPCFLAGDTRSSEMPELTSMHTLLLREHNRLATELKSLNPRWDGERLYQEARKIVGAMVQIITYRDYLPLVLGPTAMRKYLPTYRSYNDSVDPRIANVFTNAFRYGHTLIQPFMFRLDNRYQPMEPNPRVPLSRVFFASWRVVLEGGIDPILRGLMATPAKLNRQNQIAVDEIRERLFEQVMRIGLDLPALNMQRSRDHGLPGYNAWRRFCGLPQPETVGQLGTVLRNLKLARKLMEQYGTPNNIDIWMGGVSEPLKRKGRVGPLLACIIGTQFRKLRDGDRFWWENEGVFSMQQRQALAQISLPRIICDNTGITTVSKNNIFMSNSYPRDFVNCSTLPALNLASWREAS
T1 sequence (P05164 165-273 limits assumed): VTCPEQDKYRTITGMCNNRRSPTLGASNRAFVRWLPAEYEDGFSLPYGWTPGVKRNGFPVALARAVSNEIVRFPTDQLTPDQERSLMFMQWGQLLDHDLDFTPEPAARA

MPO kinact/Ki | Compound
13400 1/s per M | O=c1cc(-c2cc(Cl)ccc2OCCO)n(CCO)c(=S)[nH]1 [Example 425, 6-[5-chloro-2-(2-hydroxyethoxy)phenyl]-1-(2-hydroxyethyl)-2-thioxo-2,3-dihydropyrimidin-4(1H)-one]
4410 1/s per M | NC(=O)Cn1c(-c2cc(Cl)ccc2OCCO)cc(=O)[nH]c1=S [Example 426, 2-{6-[5-chloro-2-(2-hydroxyethoxy)phenyl]-4-oxo-2-thioxo-3,4-dihydropyrimidin-1(2H)-yl}acetamide]
5360 1/s per M | NCCn1c(-c2cc(Cl)ccc2OCCO)cc(=O)[nH]c1=S [Example 427, 1-(2-aminoethyl)-6-[5-chloro-2-(2-hydroxyethoxy)phenyl]-2-thioxo-2,3-dihydropyrimidin-4(1H)-one]
5890 1/s per M | NCCNC(=O)Cn1c(-c2ccccc2OCCO)cc(=O)[nH]c1=S [Example 428, N-(2-aminoethyl)-2-{6-[2-(2-hydroxyethoxy)phenyl]-4-oxo-2-thioxo-3,4-dihydropyrimidin-1(2H)-yl}acetamide]
6620 1/s per M | COc1ccc(-c2cc(=O)[nH]c(=S)n2CC(=O)NCC(C)(C)N)c(OC)c1 [Example 429, N-(2-amino-2-methylpropyl)-2-[6-(2,4-dimethoxyphenyl)-4-oxo-2-thioxo-3,4-dihydropyrimidin-1(2H)-yl]acetamide]
9440 1/s per M | COc1ccc(-c2cc(=O)[nH]c(=S)n2CC(=O)N[C@H]2C[C@@H](N)C2)c(OC)c1 [Example 430, N-(cis-3-aminocyclobutyl)-2-[6-(2,4-dimethoxyphenyl)-4-oxo-2-thioxo-3,4-dihydropyrimidin-1(2H)-yl]acetamide]
3440 1/s per M | COc1ccc(-c2cc(=O)[nH]c(=S)n2CC(=O)N2CC(N)C2)c(OC)c1 [Example 431, 1-[2-(3-aminoazetidin-1-yl)-2-oxoethyl]-6-(2,4-dimethoxyphenyl)-2-thioxo-2,3-dihydropyrimidin-4(1H)-one]
1410 1/s per M | COc1ccc(-c2cc(=O)[nH]c(=S)n2CC(=O)NC(C)(C)CN)c(OC)c1 [Example 432, N-(1-amino-2-methylpropan-2-yl)-2-[6-(2,4-dimethoxyphenyl)-4-oxo-2-thioxo-3,4-dihydropyrimidin-1(2H)-yl]acetamide]
3490 1/s per M | COc1ccc(-c2cc(=O)[nH]c(=S)n2CC(=O)N[C@H](C)[C@@H](C)N)c(OC)c1 [Example 433, N-[(2R,3R)-3-aminobutan-2-yl]-2-[6-(2,4-dimethoxyphenyl)-4-oxo-2-thioxo-3,4-dihydropyrimidin-1(2H)-yl]acetamide]
4070 1/s per M | CCNC(=O)Cn1c(-c2ccc(OC)cc2OC)cc(=O)[nH]c1=S [Example 434, 2-[6-(2,4-dimethoxyphenyl)-4-oxo-2-thioxo-3,4-dihydropyrimidin-1(2H)-yl]-N-ethylacetamide]
2420 1/s per M | CCCNC(=O)Cn1c(-c2ccc(OC)cc2OC)cc(=O)[nH]c1=S [Example 435, 2-[6-(2,4-dimethoxyphenyl)-4-oxo-2-thioxo-3,4-dihydropyrimidin-1(2H)-yl]-N-propylacetamide]
3710 1/s per M | COCCNC(=O)Cn1c(-c2ccc(OC)cc2OC)cc(=O)[nH]c1=S [Example 436, 2-[6-(2,4-dimethoxyphenyl)-4-oxo-2-thioxo-3,4-dihydropyrimidin-1(2H)-yl]-N-(2-methoxyethyl)acetamide]
3400 1/s per M | COc1ccc(-c2cc(=O)[nH]c(=S)n2CC(=O)N[C@H]2C[C@H](N)C2)c(OC)c1 [Example 437, N-(trans-3-aminocyclobutyl)-2-[6-(2,4-dimethoxyphenyl)-4-oxo-2-thioxo-3,4-dihydropyrimidin-1(2H)-yl]acetamide]
7550 1/s per M | COc1ccc(-c2cc(=O)[nH]c(=S)n2CC(=O)NC2CNC2)c(OC)c1 [Example 438, N-(azetidin-3-yl)-2-[6-(2,4-dimethoxyphenyl)-4-oxo-2-thioxo-3,4-dihydropyrimidin-1(2H)-yl]acetamide]
9200 1/s per M | COc1ccc(-c2cc(=O)[nH]c(=S)n2CC(=O)N[C@H]2CC[C@@H]2N)c(OC)c1 [Example 439, N-[(1S,2S)-2-aminocyclobutyl]-2-[6-(2,4-dimethoxyphenyl)-4-oxo-2-thioxo-3,4-dihydropyrimidin-1(2H)-yl]acetamide]
3310 1/s per M | COc1ccc(-c2cc(=O)[nH]c(=S)n2CCN(C)C(=O)CN)c(OC)c1 [Example 440, N-{2-[6-(2,4-dimethoxyphenyl)-4-oxo-2-thioxo-3,4-dihydropyrimidin-1(2H)-yl]ethyl}-N-methylglycinamide]
3260 1/s per M | COc1ccc(-c2cc(=O)[nH]c(=S)n2CC(=O)N[C@@H]2CC[C@H]2N)c(OC)c1 [Example 441, N-[(1R,2R)-2-aminocyclobutyl]-2-[6-(2,4-dimethoxyphenyl)-4-oxo-2-thioxo-3,4-dihydropyrimidin-1(2H)-yl]acetamide]
12300 1/s per M | COc1ccc(-c2cc(=O)[nH]c(=S)n2CC(=O)NCCCN)c(OC)c1 [Example 442, N-(3-aminopropyl)-2-[6-(2,4-dimethoxyphenyl)-4-oxo-2-thioxo-3,4-dihydropyrimidin-1(2H)-yl]acetamide]
7330 1/s per M | COc1ccc(-c2cc(=O)[nH]c(=S)n2CC(=O)NCC(F)(F)CN)c(OC)c1 [Example 443, N-(3-amino-2,2-difluoropropyl)-2-[6-(2,4-dimethoxyphenyl)-4-oxo-2-thioxo-3,4-dihydropyrimidin-1(2H)-yl]acetamide]
17400 1/s per M | COc1ccc(-c2cc(=O)[nH]c(=S)n2CCC(=O)NCCN)c(OC)c1 [Example 444, N-(2-aminoethyl)-3-[6-(2,4-dimethoxyphenyl)-4-oxo-2-thioxo-3,4-dihydropyrimidin-1(2H)-yl]propanamide]
7350 1/s per M | COc1ccc(-c2cc(=O)[nH]c(=S)n2CC(=O)NCCNCC2CC2)c(OC)c1 [Example 445, N-{2-[(cyclopropylmethyl)amino]ethyl}-2-[6-(2,4-dimethoxyphenyl)-4-oxo-2-thioxo-3,4-dihydropyrimidin-1(2H)-yl]acetamide]
14200 1/s per M | COc1ccc(-c2cc(=O)[nH]c(=S)n2CCC(=O)NC(=N)N)c(OC)c1 [Example 446, N-carbamimidoyl-3-{6-(2,4-dimethoxyphenyl)-4-oxo-2-thioxo-3,4-dihydropyrimidin-1(2H)-yl]propanamide]
17200 1/s per M | COc1ccc(F)cc1-c1cc(=O)[nH]c(=S)n1CCCNC(=N)NC#N [Example 447, 1-cyano-3-{3-[6-(5-fluoro-2-methoxyphenyl)-4-oxo-2-thioxo-3,4-dihydropyrimidin-1(2H)-yl]propyl}guanidine]
6490 1/s per M | N=C(N)NCCn1c(-c2cc(Cl)ccc2OCCO)cc(=O)[nH]c1=S [Example 448, 1-(2-{6-[5-chloro-2-(2-hydroxyethoxy)phenyl]-4-oxo-2-thioxo-3,4-dihydropyrimidin-1(2H)-yl}ethyl)guanidine]
12000 1/s per M | CCNC(=N)NCCCn1c(-c2cc(Cl)ccc2OC)cc(=O)[nH]c1=S [Example 449, 1-{3-[6-(5-chloro-2-methoxyphenyl)-4-oxo-2-thioxo-3,4-dihydropyrimidin-1(2H)-yl]propyl}-2-ethylguanidine]

Source: patent US9399626B2, “2-thiopyrimidinones” (Pfizer Inc., priority 2011, dated 2016)
